Measurements published in publication PMC10300798, “Alternative Enzyme Inhibition Assay for Safety Evaluation of Food Preservatives” (Life, 2023).

What was measured:
Format in all cases: biochemical
[1] = target: T1, lactate dehydrogenase (LDH) (Oryctolagus cuniculus, UniProt P13491); experiment: spectrophotometric NAD+ reduction, […] nm; details: read-out: Sodium Benzoate / IC20
T1 construct: gene LDHA

[2] = target: T2, alcohol dehydrogenase (ADH) (Saccharomyces cerevisiae, UniProt P00330); experiment: spectrophotometric NAD+ reduction, […] nm; details: read-out: Potassium Sorbate / IC20
T2 construct: gene ADH1
T2 sequence (P00330 2-348): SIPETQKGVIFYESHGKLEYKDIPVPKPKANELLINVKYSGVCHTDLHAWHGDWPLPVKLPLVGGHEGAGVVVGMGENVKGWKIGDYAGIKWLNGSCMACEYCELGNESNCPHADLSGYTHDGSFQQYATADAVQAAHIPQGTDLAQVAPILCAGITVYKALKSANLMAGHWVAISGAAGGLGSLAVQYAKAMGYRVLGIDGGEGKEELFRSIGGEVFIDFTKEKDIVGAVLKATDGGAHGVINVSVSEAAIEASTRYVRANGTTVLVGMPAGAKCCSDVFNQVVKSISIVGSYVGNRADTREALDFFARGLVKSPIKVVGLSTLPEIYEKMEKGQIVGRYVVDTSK

[3] = target: T3, trypsin (Try) (Sus scrofa, UniProt P00761); experiment: BAEE hydrolysis, absorbance […] nm; details: read-out: Potassium Sorbate / IC50 (converted)
T3 construct: native, from porcine pancreas, lyophilized, 1300 BAEE U/mg (Sigma-Aldrich)
T3 sequence (P00761 9-231): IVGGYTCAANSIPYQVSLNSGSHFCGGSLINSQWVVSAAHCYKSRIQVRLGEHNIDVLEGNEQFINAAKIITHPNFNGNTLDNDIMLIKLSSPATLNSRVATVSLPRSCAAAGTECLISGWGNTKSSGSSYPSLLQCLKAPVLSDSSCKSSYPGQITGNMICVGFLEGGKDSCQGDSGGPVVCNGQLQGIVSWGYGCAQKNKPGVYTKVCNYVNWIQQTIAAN

SMILES	IC20 [1]	IC20 [2]	IC50 [3]
O=C(O)c1ccccc1 [sodium benzoate]	2200 ± 321 mg/L	–	–
C/C=C/C=C/C(=O)O [potassium sorbate]	–	> 5000 mg/L	134 µM
